This passage reports Ki, Activity and IC50 results from ChEMBL document CHEMBL1152083, “Structure-activity studies of nonmacrocyclic rapamycin derivatives” (Bioorg Med Chem Lett, 1993).

Active and inactive are the calls of the source. No cut-off for these calls is given here.

Test [1] in a line: Binding affinity for FK506 binding protein. Conditions: read-out: Ki app.
Test [2] is filed under the species Mus musculus. As to the kind of experiment: In vitro immunosuppressive activity by splenocyte mitogenesis assay in spleen cells from BDF1 female mice at 1 pM to 10 uM concentration; not active. Format: functional, cell-based.
The species named for test [3] is Mus musculus. As to the kind of experiment: In vitro immunosuppressive activity by splenocyte mitogenesis assay in spleen cells from BDF1 female mice at 1 pM to 10 uM concentration. Type of test: functional, cell-based.
Test [4] can be described thus: Binding affinity for FK506 binding protein; value ranges from 2-6 nM. Conditions: read-out: Ki app.

With `COCC(=O)[C@H](C)C[C@H](C)\C=C/C=C/C=C(\C)[C@H](C[C@@H]1CC[C@@H](C)[C@](O)(C(=O)C(=O)N2CCCC[C@H]2C(=O)NCc2ccccc2)O1)OC`, in test [1], the Ki was 110 nM. Besides, in test [2], the result was inactive.
Turning to `COCC(=O)[C@H](C)C[C@H](C)\C=C/C=C/C=C(\C)[C@H](C[C@@H]1CC[C@@H](C)[C@](O)(C(=O)C(=O)N2CCCC[C@H]2C(=O)OC(C)C)O1)OC`, the Ki in test [1] was determined as 51 nM. For the same compound, the outcome in test [2] was inactive.
For orientation: IC50 means the concentration needed to halve the response being measured. Read a high IC50 as lower potency. In the case of `CO[C@H]1C[C@@H]2CC[C@@H](C)[C@@](O)(O2)C(=O)C(=O)N2CCCC[C@H]2C(=O)O[C@H]([C@H](C)C[C@@H]2CC[C@@H](O)[C@H](OC)C2)CC(=O)[C@H](C)/C=C(\C)[C@@H](O)[C@@H](OC)C(=O)[C@H](C)C[C@H](C)/C=C/C=C/C=C/1C` [SIROLIMUS], the Ki in test [1] came to 0.5 nM. In test [3], 1 nM corresponded to half-maximal inhibition (IC50).
Consider `CO[C@@H](C[C@@H]1CC[C@@H](C)[C@](O)(C(=O)C(=O)N2CCCC[C@H]2C(=O)OCc2ccccc2)O1)/C(C)=C/C=C/C=C\[C@@H](C)C[C@@H](C)C(=O)[C@H](OC)[C@H](O)/C(C)=C/[C@@H](C)C(=O)/C=C/[C@H](C)C[C@@H]1CC[C@@H](O)[C@H](OC)C1`, for which the Ki in test [4] was 2 nM. Also, the result in test [2] was inactive.
With `COCC(=O)[C@H](C)C[C@H](C)\C=C/C=C/C=C(\C)[C@H](C[C@@H]1CC[C@@H](C)[C@](O)(C(=O)C(=O)N2CCCC[C@H]2C(=O)O[C@@H](CC(=O)[C@H](C)/C=C(\C)C=O)[C@H](C)C[C@@H]2CC[C@@H](O)[C@H](OC)C2)O1)OC`, in test [1], the Ki is 4 nM. Moreover, in test [2], the outcome was inactive.
In the same order, the values of `COCC(=O)[C@H](C)C[C@H](C)\C=C/C=C/C=C(\C)[C@H](C[C@@H]1CC[C@@H](C)[C@](O)(C(=O)C(=O)N2CCCC[C@H]2C(=O)OC/C=C/c2ccccc2)O1)OC` are 31 nM and “inactive”.
`COC(=O)[C@@H]1CCCCN1C(=O)C(=O)[C@]1(O)O[C@H](C[C@H](OC)/C(C)=C/C=C/C=C\[C@@H](C)C[C@@H](C)C(=O)[C@H](OC)[C@H](O)/C(C)=C/[C@@H](C)C(=O)/C=C/[C@H](C)C[C@@H]2CC[C@@H](O)[C@H](OC)C2)CC[C@H]1C`: the Ki in test [1] worked out at 29 nM. Besides, the result in test [2] was inactive.
As for `COCC(=O)[C@H](C)C[C@H](C)\C=C/C=C/C=C(\C)[C@H](C[C@@H]1CC[C@@H](C)[C@](O)(C(=O)C(=O)N2CCCC[C@H]2C(=O)OCCCc2ccc(OC)c(OC)c2)O1)OC`, the Ki in test [1] worked out at 43 nM. In test [2], the result was inactive.
Regarding `COCC(=O)[C@H](C)C[C@H](C)\C=C/C=C/C=C(\C)[C@H](C[C@@H]1CC[C@@H](C)[C@](O)(C(=O)C(=O)N2CCCC[C@H]2C(=O)O)O1)OC`, the Ki in test [1] is 500 nM. The result in test [2] was inactive.
On to `COCC(=O)[C@H](C)C[C@H](C)\C=C/C=C/C=C(\C)[C@H](C[C@@H]1CC[C@@H](C)[C@](O)(C(=O)C(=O)N2CCCC[C@H]2C(=O)OC)O1)OC`, for which the Ki in test [1] was 12 nM. The outcome in test [2] was inactive.
On to `COCC(=O)[C@H](C)C[C@H](C)\C=C/C=C/C=C(\C)[C@H](C[C@@H]1CC[C@@H](C)[C@](O)(C(=O)C(=O)N2CCCC[C@H]2C(=O)OCc2ccccc2)O1)OC`, for which the Ki in test [1] was 15 nM. In addition, the outcome in test [2] was inactive.
The corresponding values for `COCC(=O)[C@H](C)C[C@H](C)\C=C/C=C/C=C(\C)[C@H](C[C@@H]1CC[C@@H](C)[C@](O)(C(=O)C(=O)N2CCCC[C@H]2C(=O)NCCCc2ccccc2)O1)OC` are 32 nM and “inactive”.
Consider `CCC(C)(C)C(=O)C(=O)N1CCCC[C@H]1C(=O)O[C@@H](CC(=O)[C@H](C)/C=C(\C)[C@@H](O)[C@@H](OC)C(=O)[C@H](C)C[C@H](C)\C=C/C=C/C=C(\C)[C@H](C[C@@H]1CC[C@@H](C)C(=O)O1)OC)[C@H](C)C[C@@H]1CC[C@@H](O)[C@H](OC)C1`, for which the Ki in test [1] was found to be 20 nM. In test [2], the outcome was inactive.
With `COCC(=O)[C@H](C)C[C@H](C)\C=C/C=C/C=C(\C)[C@H](C[C@@H]1CC[C@@H](C)[C@](O)(C(=O)C(=O)N2CCCC[C@H]2C(=O)OC(C)c2ccccc2)O1)OC` (stereo partly drawn), the Ki in test [1] is 41 nM. In test [2], the result was inactive.
